Results as given in patent EP4471049A1 (Zealand Pharma A/S, priority 2023, dated 2024).
pIC50: −log10 of the molar value. *1 amine or outer side, *2 acyl side, *3 side chain or, on linkers, in order; H or OH if unused. Where a SMILES comes first, the peptide text is derived from it. Bridges are numbered along the chain shown (N, C = ends). [ ]: non-standard residue; d: D form. 2Nal = N[C@@H](Cc1ccc2ccccc2c1)C(=O)O; AEF = NCCOc1ccc(C[C@H](N)C(=O)O)cc1; X1 = O=C(Cc1ccc(CN[*:1])cc1)[*:2]; 3Pal = N[C@@H](Cc1cccnc1)C(=O)O; αMeL = CC(C)C[C@](C)(N)C(=O)O; Dab = NCC[C@H](N)C(=O)O

Tests used:
[1] = Peptide stability in simulated gastric fluid (SGF); type: in vitro ADME; conditions: 37 °C, pH 1.2, porcine pepsin 3.2 g/L; for remaining at 4 h, 10 µM / remaining at 1 h, 10 µM: pig, simulated gastric fluid (SGF) with porcine pepsin
Method: (§1) SGF was prepared by dissolving sodium chloride (0.2 g) in 50 mL of water. A volume of 0.7 mL of 10 M HCl was added to adjust the pH of the solution to 1.2 and the volume made up to 100 mL with water. […] SIF was prepared by dissolving monobasic potassium phosphate (0.68 g) in 50 mL of water and adjusting the pH to 6.8 with 1 M NaOH. The volume was subsequently made up to 100 mL with water. 200 mg porcine pancreatin (P1625, Sigma Aldrich) was gently dissolved into 20 mL preheated (37 °C) solution (10 g/L) immediately prior to the incubation.
(§2) The incubation was performed at 37 °C with gentle shaking. […] After the last timepoint, the sampling plate was mixed for 10 min on a shaking table and centrifuged 10 min at 2200 g. 70 µL resulting supernatant was diluted with 150 µL water, mixed and centrifugated before analysis by liquid chromatography high resolution mass spectrometry. […] Percent remaining at each timepoint was calculated relative to timepoint zero based on absolute peak areas.
Compounds with a SGF stability (after 4 h) above 70% are considered highly SGF stable. […] Table 3-4: SGF data

[2] = Peptide stability in simulated intestinal fluid (SIF); type: in vitro ADME; conditions: 37 °C, pH 6.8, porcine pancreatin 10 g/L, 10 µM; for remaining at 4 h, 10 µM / remaining at 1 h, 10 µM: pig, simulated intestinal fluid (SIF) with porcine pancreatin; for remaining at 4 h, 10 µM: read-out: SIF (% remaining 4 h)
Method: as §1, §2
Compounds with a SIF stability (after 4 h) above 70% are considered highly SIF stable.

[3] = target: T1, human IL-23R (Homo sapiens, UniProt Q5VWK5); assay: biochemical; conditions: for Emax: read-out: % displacement (hIL-23R binding)
T1 sequence (Q5VWK5 22-629): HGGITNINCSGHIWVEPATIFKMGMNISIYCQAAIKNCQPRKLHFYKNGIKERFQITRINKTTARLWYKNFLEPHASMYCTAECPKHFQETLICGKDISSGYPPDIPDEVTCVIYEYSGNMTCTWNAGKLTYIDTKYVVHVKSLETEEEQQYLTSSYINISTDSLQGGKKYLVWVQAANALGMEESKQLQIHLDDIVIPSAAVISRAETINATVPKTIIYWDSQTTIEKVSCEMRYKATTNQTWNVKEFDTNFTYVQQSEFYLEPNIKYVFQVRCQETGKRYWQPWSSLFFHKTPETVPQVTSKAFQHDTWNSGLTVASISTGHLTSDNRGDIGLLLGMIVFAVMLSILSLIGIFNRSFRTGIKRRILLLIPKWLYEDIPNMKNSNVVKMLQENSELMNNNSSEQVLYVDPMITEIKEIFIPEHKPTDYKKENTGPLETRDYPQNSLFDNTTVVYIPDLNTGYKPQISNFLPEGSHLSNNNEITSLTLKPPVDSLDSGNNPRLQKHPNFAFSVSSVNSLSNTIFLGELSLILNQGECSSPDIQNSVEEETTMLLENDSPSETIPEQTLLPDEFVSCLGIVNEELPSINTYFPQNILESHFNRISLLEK
Outline: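 BRET displacement of a TAMRA-labelled reference compound from N-terminal Nanoluc-IL-23R fusion protein in membranes from stably transfected HEK293 cells. Incubation 2 h at room temperature, then Nanoluc substrate was added and the TAMRA/Nanoluc ratio read. IC50 and maximal displacement came from 4-parameter logistic fits.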

CNC(=O)[C@H](Cc1cccnc1)NC(=O)[C@H](CCN)NC(=O)[C@@H]1CCC(=O)NCc2ccc(cc2)CC(=O)N[C@@H](CO)C(=O)N[C@H]2CCC(=O)NCC[C@H](NC(=O)[C@H](CCNC(C)=O)NC(=O)[C@H](Cc3c[nH]c4ccccc34)NC2=O)C(=O)N[C@@H](Cc2ccc(OCCN)cc2)C(=O)N[C@@H](Cc2ccc3ccccc3c2)C(=O)N[C@@](C)(CC(C)C)C(=O)N1 [Compound 25, [4-Aminomethyl-phenylacetyl](1c)*SE(2c)W[Dab(Ac)][Dab](2c)[Y(2-aminoethoxy)][2-Nal][2-Me-Leu]E(1c)[Dab][3-(3-Pyridyl)-Ala]-[NHMe]] ([X1]SEW[Dab](Ac)[Dab][AEF][2Nal][αMeL]E[Dab][3Pal]-NHMe; lactam 3-6, N-10)
remaining at 4 h, 10 µM ([1]; 4 h): 88% | remaining at 4 h, 10 µM ([2]; 4 h): 91% | Emax [3]: 93%

CNC(=O)[C@H](Cc1cccnc1)NC(=O)[C@H](CCO)NC(=O)[C@@H]1CCC(=O)NCc2ccc(cc2)CC(=O)N[C@@H](CO)C(=O)N[C@H]2CCC(=O)NCC[C@H](NC(=O)[C@H](CCC(N)=O)NC(=O)[C@H](Cc3c[nH]c4ccccc34)NC2=O)C(=O)N[C@@H](Cc2ccc(OCCN)cc2)C(=O)N[C@@H](Cc2ccc3ccccc3c2)C(=O)N[C@@](C)(CC(C)C)C(=O)N1 [Compound 36, [4-Aminomethyl-phenylacetyl](1c)*SE(2c)WQ[Dab](2c)[Y(2-aminoethoxy)][2-Nal][2-Me-Leu]E(1c)[hSer][3-(3-Pyridyl)-Ala]-[NHMe]]
remaining at 1 h, 10 µM ([1]; 1 h): 96% | remaining at 4 h, 10 µM ([2]; 4 h): 55% | % displacement (hIL-23R binding) [3]: 94% | pIC50 [3]: 10.85

CNC(=O)[C@H](Cc1cccnc1)NC(=O)[C@@H](CO)NC(=O)[C@@H]1CCC(=O)NCc2ccc(cc2)CC(=O)N[C@@H](CO)C(=O)N[C@H]2CCC(=O)NCC[C@H](NC(=O)[C@H](CCC(N)=O)NC(=O)[C@H](Cc3c[nH]c4ccccc34)NC2=O)C(=O)N[C@@H](Cc2ccc(OCCN)cc2)C(=O)N[C@@H](Cc2ccc3ccccc3c2)C(=O)N[C@@](C)(CC(C)C)C(=O)N1 [Compound 38, [4-Aminomethyl-phenylacetyl](1c)*SE(2c)WQ[Dab](2c)[Y(2-aminoethoxy)][2-Nal][2-Me-Leu]E(1c)[{d}S][3-(3-Pyridyl)-Ala]-[NHMe]]
remaining at 4 h, 10 µM ([1]; 4 h): 91% | remaining at 4 h, 10 µM ([2]; 4 h): 65% | % displacement (hIL-23R binding) [3]: 102% | pIC50 [3]: 10.18

CNC(=O)[C@H](Cc1cccnc1)NC(=O)C1(NC(=O)[C@@H]2CCC(=O)NCc3ccc(cc3)CC(=O)N[C@@H](CO)C(=O)N[C@H]3CCC(=O)NCC[C@H](NC(=O)[C@H](CCC(N)=O)NC(=O)[C@H](Cc4c[nH]c5ccccc45)NC3=O)C(=O)N[C@@H](Cc3ccc(OCCN)cc3)C(=O)N[C@@H](Cc3ccc4ccccc4c3)C(=O)N[C@@](C)(CC(C)C)C(=O)N2)CCOCC1 [Compound 35, [4-Aminomethyl-phenylacetyl](1c)*SE(2c)WQ[Dab](2c)[Y(2-aminoethoxy)][2-Nal][2-Me-Leu]E(1c)[THP][3-(3-Pyridyl)-Ala]-[NHMe]]
remaining at 4 h, 10 µM ([1]; 4 h): 94% | remaining at 1 h, 10 µM ([2]; 1 h): 110% | % displacement (hIL-23R binding) [3]: 101%

CNC(=O)[C@H](Cc1cccnc1)NC(=O)[C@H](CCN)NC(=O)[C@@H]1CCC(=O)NCc2ccc(cc2)CC(=O)N[C@@H](C)C(=O)N[C@H]2CCC(=O)NCC[C@H](NC(=O)[C@H](CCC(N)=O)NC(=O)[C@H](Cc3c[nH]c4ccccc34)NC2=O)C(=O)N[C@@H](Cc2c[nH]c3ncccc23)C(=O)N[C@@H](Cc2ccc3ccccc3c2)C(=O)NC(C)(C)C(=O)N1 [Compound 43, [4-Aminomethyl-phenylacetyl](1c)*AE(2c)WQ[Dab](2c)[7-AzaTrp][2-Nal][Aib]E(1c)[Dab][3-(3-Pyridyl)-Ala]-[NHMe]]
remaining at 4 h, 10 µM ([1]; 4 h): 98% | remaining at 4 h, 10 µM ([2]; 4 h): 92% | % displacement (hIL-23R binding) [3]: 101% | pIC50 [3]: 10.32

CNC(=O)[C@H](Cc1cccnc1)NC(=O)[C@](C)(CO)NC(=O)[C@@H]1CCC(=O)NCc2ccc(cc2)CC(=O)N[C@@H](CO)C(=O)N[C@H]2CCC(=O)NCC[C@H](NC(=O)[C@H](CCC(N)=O)NC(=O)[C@H](Cc3c[nH]c4ccccc34)NC2=O)C(=O)N[C@@H](Cc2ccc(OCCN)cc2)C(=O)N[C@@H](Cc2ccc3ccccc3c2)C(=O)N[C@@](C)(CC(C)C)C(=O)N1 [Compound 39, [4-Aminomethyl-phenylacetyl](1c)*SE(2c)WQ[Dab](2c)[Y(2-aminoethoxy)][2-Nal][2-Me-Leu]E(1c)[2-Me-Ser][3-(3-Pyridyl)-Ala]-[NHMe]]
remaining at 1 h, 10 µM ([1]; 1 h): 99% | remaining at 1 h, 10 µM ([2]; 1 h): 100% | Emax [3]: 99%

CC(C)C[C@]1(C)NC(=O)[C@H](Cc2ccc3ccccc3c2)NC(=O)[C@H](Cc2ccc(OCCN)cc2)NC(=O)[C@@H]2CCNC(=O)CC[C@H](NC(=O)[C@H](CO)NC(=O)Cc3ccc(cc3)CNC(=O)CC[C@@H](C(=O)N[C@@H](CCN)C(=O)N[C@@H](Cc3cn(C)cn3)C(N)=O)NC1=O)C(=O)N[C@@H](Cc1c[nH]c3ccccc13)C(=O)N[C@@H](CCC(N)=O)C(=O)N2 [Compound 14, [4-Aminomethyl-phenylacetyl](1c)*SE(2c)WQ[Dab](2c)[Y(2-aminoethoxy)][2-Nal][2-Me-Leu]E(1c)[Dab][H(Me)]-[NH2]]
remaining at 4 h, 10 µM ([1]; 4 h): 82% | remaining at 4 h, 10 µM ([2]; 4 h): 75% | % displacement (hIL-23R binding) [3]: 102%

CNC(=O)[C@H](Cc1cccnc1)NC(=O)[C@H](Cc1c[nH]cn1)NC(=O)[C@@H]1CCC(=O)NCc2ccc(cc2)CC(=O)N[C@@H](CO)C(=O)N[C@H]2CCC(=O)NCC[C@H](NC(=O)[C@H](CCC(N)=O)NC(=O)[C@H](Cc3c[nH]c4ccccc34)NC2=O)C(=O)N[C@@H](Cc2ccc(OCCN)cc2)C(=O)N[C@@H](Cc2ccc3ccccc3c2)C(=O)N[C@@](C)(CC(C)C)C(=O)N1 [Compound 34, [4-Aminomethyl-phenylacetyl](1c)*SE(2c)WQ[Dab](2c)[Y(2-aminoethoxy)][2-Nal][2-Me-Leu]E(1c)H[3-(3-Pyridyl)-Ala]-[NHMe]] ([X1]SEWQ[Dab][AEF][2Nal][αMeL]EH[3Pal]-NHMe; lactam 3-6, N-10)
remaining at 1 h, 10 µM ([1]; 1 h): 96% | remaining at 1 h, 10 µM ([2]; 1 h): 87% | remaining at 4 h, 10 µM ([2]; 4 h): 56% | % displacement (hIL-23R binding) [3]: 90% | pIC50 [3]: 10.89

CNC(=O)[C@H](Cc1cccnc1)NC(=O)[C@H](COC)NC(=O)[C@@H]1CCC(=O)NCc2ccc(cc2)CC(=O)N[C@@H](CO)C(=O)N[C@H]2CCC(=O)NCC[C@H](NC(=O)[C@H](CCC(N)=O)NC(=O)[C@H](Cc3c[nH]c4ccccc34)NC2=O)C(=O)N[C@@H](Cc2ccc(OCCN)cc2)C(=O)N[C@@H](Cc2ccc3ccccc3c2)C(=O)N[C@@](C)(CC(C)C)C(=O)N1 [Compound 37, [4-Aminomethyl-phenylacetyl](1c)*SE(2c)WQ[Dab](2c)[Y(2-aminoethoxy)][2-Nal][2-Me-Leu]E(1 c)[Ser(OMe)][3-(3-Pyridyl)-Ala]-[NHMe]]
remaining at 1 h, 10 µM ([1]; 1 h): 97% | remaining at 1 h, 10 µM ([2]; 1 h): 78% | remaining at 4 h, 10 µM ([2]; 4 h): 69% | % displacement (hIL-23R binding) [3]: 95% | pIC50 [3]: 10.89

CC(C)C[C@@H]1NC(=O)[C@H](Cc2c[nH]c3ccccc23)NC(=O)[C@H](Cc2c[nH]c3ccccc23)NC(=O)[C@@H]2CSCC(=O)CSC[C@H](NC(=O)[C@H](CO)NC(=O)[C@@H](NC(=O)[C@@H](N)CC(=O)O)CSCC(=O)CSC[C@@H](C(=O)N[C@@H](CCCNC(=N)N)C(N)=O)NC1=O)C(=O)N[C@@H](Cc1c[nH]c3ccccc13)C(=O)N[C@@H](CCC(N)=O)C(=O)N2 (single isomer, unassigned) [I3 (isomer 3), H-DC(1a)SC(2a)WQC(2a)WWLC(1a)R-[NH2], reference compound]
SGF (% remaining 1 h) ([1]; 1 h, 10 µM): 5% | SGF (% remaining 4 h) ([1]; 4 h, 10 µM): 0% | SIF (% remaining 1 h) ([2]; 1 h): 0% | SIF (% remaining 4 h) ([2]; 4 h): 0%
